In ChEMBL document CHEMBL1201862, “PubChem BioAssay data set” (2004):
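48-hour exposure; five concentrations; linearly interpolated endpoints. GI50: concentration for 50% inhibition of growth.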 The source made the active and inactive calls. No stated cut-off is given here; in the data, active = GI50 up to about 1.1 µM and inactive = higher.

Columns and labels:
Test in all cases: growth of human tumour cells (NCI), 48 h
BT-549 = test system: BT-549
HCT-116 = test system: HCT-116
HOP-62 = test system: HOP-62
HOP-92 = test system: HOP-92
MDA-MB-231 = test system: MDA-MB-231
MDA-N = test system: MDA-N
MOLT-4 = test system: MOLT-4
NCI-H23 = test system: NCI-H23
NCI-H460 = test system: NCI-H460
OVCAR-3 = test system: OVCAR-3
OVCAR-5 = test system: OVCAR-5
OVCAR-8 = test system: OVCAR-8
SF-295 = test system: SF-295
SK-MEL-28 = test system: SK-MEL-28
SK-MEL-5 = test system: SK-MEL-5
SK-OV-3 = test system: SK-OV-3
SN12C = test system: SN12C
SNB-75 = test system: SNB-75
U-251 = test system: U-251
UACC-62 = test system: UACC-62

| SMILES | GI50 (BT-549) | GI50 (HCT-116) | GI50 (HOP-62) | GI50 (HOP-92) | GI50 (MDA-MB-231) | GI50 (MDA-N) | GI50 (MOLT-4) | GI50 (NCI-H23) | GI50 (NCI-H460) | GI50 (OVCAR-3) | GI50 (OVCAR-5) | GI50 (OVCAR-8) | GI50 (SF-295) | GI50 (SK-MEL-28) | GI50 (SK-MEL-5) | GI50 (SK-OV-3) | GI50 (SN12C) | GI50 (SNB-75) | GI50 (U-251) | GI50 (UACC-62) |
| --- | --- | --- | --- | --- | --- | --- | --- | --- | --- | --- | --- | --- | --- | --- | --- | --- | --- | --- | --- | --- |
| COC(=O)c1ccccc1C1CN=NC12Cc1ccc3c(c1C2=O)CCC3 (stereo not given) | > 100 µM (inactive) | 39.3 µM (inactive) | > 100 µM (inactive) | 23.1 µM (inactive) | 75.5 µM (inactive) | > 100 µM (inactive) | 12.6 µM (inactive) | 19.2 µM (inactive) | 70 µM (inactive) | 6.92 µM (inactive) | > 100 µM (inactive) | 94.4 µM (inactive) | 70.6 µM (inactive) | > 100 µM (inactive) | 17.4 µM (inactive) | 49.4 µM (inactive) | > 100 µM (inactive) | 58.6 µM (inactive) | 49.1 µM (inactive) | > 100 µM (inactive) |
| CCOC(=O)c1cc2c3c(cc(OC)c2[nH]1)N(C(=O)OCC)CC3 | > 100 µM (inactive) | > 100 µM (inactive) | > 100 µM (inactive) | > 100 µM (inactive) | > 100 µM (inactive) | > 100 µM (inactive) | > 100 µM (inactive) | > 100 µM (inactive) | > 100 µM (inactive) | > 100 µM (inactive) | > 100 µM (inactive) | > 100 µM (inactive) | > 100 µM (inactive) | > 100 µM (inactive) | > 100 µM (inactive) | > 100 µM (inactive) | > 100 µM (inactive) | > 100 µM (inactive) | > 100 µM (inactive) | > 100 µM (inactive) |
| NNC(=O)c1ccc[n+](CCc2ccccc2)c1 | > 100 µM (inactive) | > 100 µM (inactive) | > 100 µM (inactive) | > 100 µM (inactive) | > 100 µM (inactive) | > 100 µM (inactive) | > 100 µM (inactive) | > 100 µM (inactive) | > 100 µM (inactive) | > 100 µM (inactive) | > 100 µM (inactive) | > 100 µM (inactive) | > 100 µM (inactive) | > 100 µM (inactive) | > 100 µM (inactive) | > 100 µM (inactive) | > 100 µM (inactive) | > 100 µM (inactive) | > 100 µM (inactive) | > 100 µM (inactive) |
| CC(=O)NC(CC(C)C)C(=O)NC(CC(C)C)C(=O)NC(C=O)CCCNC(=N)N (stereo not given) | > 100 µM (inactive) | > 100 µM (inactive) | > 100 µM (inactive) | > 100 µM (inactive) | > 100 µM (inactive) | > 100 µM (inactive) | 65 µM (inactive) | > 100 µM (inactive) | > 100 µM (inactive) | > 100 µM (inactive) | > 100 µM (inactive) | > 100 µM (inactive) | > 100 µM (inactive) | > 100 µM (inactive) | > 100 µM (inactive) | > 100 µM (inactive) | > 100 µM (inactive) | > 100 µM (inactive) | > 100 µM (inactive) | > 100 µM (inactive) |
| CC(N)(CC(O)(C(F)(F)Cl)C(F)(F)Cl)C(=O)O (stereo not given) | > 10 µM (inactive) | > 10 µM (inactive) | > 10 µM (inactive) | > 10 µM (inactive) | > 10 µM (inactive) | > 10 µM (inactive) | > 10 µM (inactive) | > 10 µM (inactive) | > 10 µM (inactive) | > 10 µM (inactive) | > 10 µM (inactive) | > 10 µM (inactive) | > 10 µM (inactive) | > 10 µM (inactive) | > 10 µM (inactive) | > 10 µM (inactive) | > 10 µM (inactive) | > 10 µM (inactive) | > 10 µM (inactive) | > 10 µM (inactive) |
| N#Cc1c(-c2ccc(Cl)cc2)c2c([nH]c1=O)-c1ccccc1SC2 | > 100 µM (inactive) | 35.4 µM (inactive) | 32.1 µM (inactive) | 17.7 µM (inactive) | 29.1 µM (inactive) | 77.6 µM (inactive) | 27.4 µM (inactive) | 93.3 µM (inactive) | 46.3 µM (inactive) | 26.2 µM (inactive) | > 100 µM (inactive) | 57.5 µM (inactive) | 28 µM (inactive) | > 100 µM (inactive) | > 100 µM (inactive) | 32.7 µM (inactive) | 54.3 µM (inactive) | 27.5 µM (inactive) | 25.6 µM (inactive) | 32.7 µM (inactive) |
| O=C(c1cc(Cl)cc(Cl)c1)N(C(=O)N1CCN(c2ccccc2)CC1)c1ccccc1 | 48.1 µM (inactive) | 24.3 µM (inactive) | 87.1 µM (inactive) | 34.5 µM (inactive) | 52.1 µM (inactive) | 12.7 µM (inactive) | 20.1 µM (inactive) | 41.1 µM (inactive) | 29.7 µM (inactive) | 66.1 µM (inactive) | 22.3 µM (inactive) | 53.5 µM (inactive) | 37.2 µM (inactive) | 56.1 µM (inactive) | 21.6 µM (inactive) | 96.6 µM (inactive) | 55.6 µM (inactive) | > 100 µM (inactive) | 39.7 µM (inactive) | 24.9 µM (inactive) |
| CC(C)NC(=O)OCc1c(COC(=O)NC(C)C)c(-c2cc[n+](COC(=O)C3CC3)cc2)n2c1CCC2 | > 100 µM (inactive) | > 100 µM (inactive) | > 100 µM (inactive) | > 100 µM (inactive) | > 100 µM (inactive) | > 100 µM (inactive) | > 100 µM (inactive) | > 100 µM (inactive) | > 100 µM (inactive) | > 100 µM (inactive) | > 100 µM (inactive) | > 100 µM (inactive) | > 100 µM (inactive) | > 100 µM (inactive) | > 100 µM (inactive) | > 100 µM (inactive) | > 100 µM (inactive) | > 100 µM (inactive) | > 100 µM (inactive) | > 100 µM (inactive) |
| Nc1ccc2c(c1)C(=O)N1CCC[C@H]1C(=O)N2 | > 100 µM (inactive) | > 100 µM (inactive) | > 100 µM (inactive) | > 100 µM (inactive) | > 100 µM (inactive) | > 100 µM (inactive) | > 100 µM (inactive) | > 100 µM (inactive) | > 100 µM (inactive) | > 100 µM (inactive) | > 100 µM (inactive) | > 100 µM (inactive) | > 100 µM (inactive) | > 100 µM (inactive) | > 100 µM (inactive) | > 100 µM (inactive) | > 100 µM (inactive) | > 100 µM (inactive) | > 100 µM (inactive) | > 100 µM (inactive) |
| CC(=O)OCC1OC(n2c(C#N)cc(=O)[nH]c2=O)CC1OC(C)=O (stereo not given) | > 100 µM (inactive) | > 100 µM (inactive) | > 100 µM (inactive) | > 100 µM (inactive) | > 100 µM (inactive) | > 100 µM (inactive) | > 100 µM (inactive) | > 100 µM (inactive) | > 100 µM (inactive) | > 100 µM (inactive) | > 100 µM (inactive) | > 100 µM (inactive) | > 100 µM (inactive) | > 100 µM (inactive) | > 100 µM (inactive) | > 100 µM (inactive) | > 100 µM (inactive) | > 100 µM (inactive) | > 100 µM (inactive) | > 100 µM (inactive) |
| O=C(Nc1nn(C(=O)c2cccnc2)c(=O)s1)c1ccc(Cl)cc1 | > 100 µM (inactive) | 84.5 µM (inactive) | > 100 µM (inactive) | 61.5 µM (inactive) | > 100 µM (inactive) | > 100 µM (inactive) | 28.1 µM (inactive) | > 100 µM (inactive) | > 100 µM (inactive) | 43.1 µM (inactive) | > 100 µM (inactive) | > 100 µM (inactive) | 46.3 µM (inactive) | > 100 µM (inactive) | 31.4 µM (inactive) | 56.2 µM (inactive) | > 100 µM (inactive) | 29.4 µM (inactive) | 74 µM (inactive) | > 100 µM (inactive) |
| O=C(C(=O)n1ccc2ccccc21)c1c[nH]c2ccccc12 | > 10 µM (inactive) | > 10 µM (inactive) | > 10 µM (inactive) | > 10 µM (inactive) | > 10 µM (inactive) | > 10 µM (inactive) | > 10 µM (inactive) | > 10 µM (inactive) | > 10 µM (inactive) | > 10 µM (inactive) | > 10 µM (inactive) | > 10 µM (inactive) | > 10 µM (inactive) | > 10 µM (inactive) | > 10 µM (inactive) | > 10 µM (inactive) | > 10 µM (inactive) | > 10 µM (inactive) | > 10 µM (inactive) | > 10 µM (inactive) |
| COC(=O)C(Cc1c[nH]c2ccccc12)NP(=O)(O)OCC1OC(n2cc(Br)c(=O)[nH]c2=O)CC1O (stereo not given) | > 100 µM (inactive) | > 100 µM (inactive) | > 100 µM (inactive) | > 100 µM (inactive) | > 100 µM (inactive) | > 100 µM (inactive) | > 100 µM (inactive) | > 100 µM (inactive) | > 100 µM (inactive) | > 100 µM (inactive) | > 100 µM (inactive) | > 100 µM (inactive) | > 100 µM (inactive) | > 100 µM (inactive) | > 100 µM (inactive) | > 100 µM (inactive) | > 100 µM (inactive) | > 100 µM (inactive) | > 100 µM (inactive) | > 100 µM (inactive) |
| Cc1cccc(-c2cc(O)c3cc(C)cnc3n2)c1 | 0.292 µM (active) | 0.118 µM (active) | 0.373 µM (active) | 11.7 µM (inactive) | 0.518 µM (active) | 0.0194 µM (active) | 0.244 µM (active) | 0.344 µM (active) | 0.311 µM (active) | 0.143 µM (active) | 0.414 µM (active) | 0.39 µM (active) | 0.148 µM (active) | 1.63 µM (inactive) | 0.12 µM (active) | 0.272 µM (active) | 0.571 µM (active) | 0.157 µM (active) | 0.147 µM (active) | 0.331 µM (active) |
